# Measured values published in US20240271223A1, “BIOMARKERS FOR A THERAPY COMPRISING AN ANGIOGENESIS INHIBITOR” (Eisai R&D Management Co., Ltd., priority 2021, published 2024).
# Columns and labels:
# [1] = test system: 12 mouse syngeneic tumor models; assay: Changes in MVD gene score of 12 mouse syngeneic tumor models with or without angiogenesis inhibitor treatment (RNA-seq); format: in vivo; conditions: tumors collected on day 8, p<0.05, t-test, FIG. 7; for Gene score compared with non-treatment group: lenvatinib 10 mg/kg once daily oral, aflibercept 5 mg/kg twice a week i.p.
# Description: Twelve mouse cell lines were cultured with appropriate medium (Table 1). Cells were harvested and suspended with Hanks' Balanced Salt Solution (HBSS) and subcutaneously inoculated into right lateral side of 7-week old immune competent mice. Tumor size was measured by an electronic digital caliper (Digimatic Caliper, Mitsutoyo Corporation) and calculated with a formula; (short diameter (mm))^2×(long diameter (mm))/2. Tumors around 100 mm^3 were resected and soaked with RNA later. mRNA extracted from tumor samples were followed by RNA-seq using Illumina NovaSeq™ (GENEWIZ) to quantify expression levels of mRNA. Sequenced reads were subjected to quality assessment by FastQC (version 0.11.5). Illumina adaptor sequences and low quality bases were trimmed by using Trimmomatic (version 0.36). Filtered reads were mapped to the mouse genome (GRCm38/mm10 and Ensembl 88) by using STAR (v2.5.2b). Gene expression levels in transcripts per million (TPM) for all samples were estimated by using RSEM (v1.2.31). Using the same tumor samples, CD31 was stained with anti-CD31 antibody (Clone SZ31, dianova) to detect endothelial cells in IHC analysis. Microvessel density (MVDCD31) score was calculated by dividing the number of CD31 positive blood vessels by tumor area using HALO (Indica Lab).
# We developed a gene score by the following steps. First, we extracted 1086 genes that were highly expressed in an endothelial cell population using scRNA-seq data of the Hepa 1-6 mouse HCC model. Next, we extracted genes with TOP20 Pearson's correlation coefficient between its logarithm-transformed expression values (log2 (TPM+1)) and MVD (IHCCD31) using 12 syngeneic tumor models that were measured by RNA-seq and IHC, respectively. Of these 20 genes, we selected seven genes that had known association with vasculature from literature search and added 3 well-known endothelial cell markers to the gene list (Table 2). We further selected genes whose expression were specific to endothelial cell cluster by manually checking t-SNE plots of scRNA-seq data of Hepa 1-6 HCC model. Finally, six genes were chosen as mouse MVD gene set. The gene score of sample i was calculated as follows: […]
# The twelve mouse cell lines shown in Table 1 were subcutaneously inoculated into right lateral side of 7-week-old immune competent mice. Mice were randomly grouped into non-treatment and lenvatinib treatment groups when the tumor size reached approximately 100 mm^3 (n=3 for each group). Lenvatinib (10 mg/kg once daily) was orally administered for mice of lenvatinib treatment group and aflibercept (5 mg/kg twice a week) was administered intraperitoneally for mice of aflibercept treatment group for a week. The day on which treatment was started was designated as day 1. […]
# [2] = test system: 12 mouse syngeneic tumor models; assay: Antitumor activity of lenvatinib on mouse syngeneic tumor models (ΔT/C); format: in vivo; conditions: 10 mg/kg once daily oral; ΔT/C on day 15; BNL, Renca and B16-F10 vs other nine models; p<0.05, t-test; FIG. 3c
# Description: The twelve mouse cell lines shown in Table 1 were subcutaneously inoculated into the right lateral side of 7-week-old immune competent mice. Mice were randomly grouped when the tumor size reached approximately 100 mm^3. Lenvatinib (10 mg/kg once daily) was orally administered for mice of lenvatinib treatment group. The day on which treatment was started was designated as day 1. The values of antitumor activity (ΔT/C) were calculated as ΔT/ΔC×100 where ΔT and ΔC are changes in the mean tumor volumes for drug treated and untreated control groups, respectively. When the tumor volumes decreased from the initial tumor volumes, ΔT/C values were calculated as (Tt−T1)/T1×100, where Tt and T1 are the mean tumor volumes of drug treated group on day t after the start of treatment and day 1, respectively. ΔT/C on day 15 was used for the analysis.
# [3] = test system: PLC/PRF/5 xenograft HCC model and two HCC patient-derived xenograft models; conditions: cited from earlier work
Compound,Gene score compared with non-treatment group [1],number of tumor models (of 12) in which gene score was decreased vs non-treatment group [1],antitumor activity (ΔT/C) in lenvatinib sensitive models compared to other nine tumor models [2],tumor microvessel density [3]
"aflibercept: inhibitor of VEGF which binds to circulating VEGF and acts as VEGF-trap, leading to inhibiting tumor angiogenesis",significantly decreased,eight,,
"COc1cc2nccc(Oc3ccc(NC(=O)NC4CC4)c(Cl)c3)c2cc1C(N)=O [lenvatinib, 4-(3-chloro-4-(cyclopropylaminocarbonyl)aminophenoxy)-7-methoxy-6-quinolinecarb oxamide]",decreased,10 tumor models,more antitumor activity,reduced tumor microvessel density
